Test results from US20150376172A1, “FLUORO-[1,3]OXAZINES AS BACE1 INHIBITORS” (HOFFMANN-LA ROCHE INC., priority 2013, published 2015).
Structures can show the parent of a compound that is named as a salt.

Target: T1, BACE1 (Homo sapiens, UniProt P56817)
T1 construct: endogenous in cells; host or cells: HEK293 APP cells
Experiment: Cellular Aβ-lowering assay (Abeta 40 AlphaLISA)
Type: cell-based
Conditions: HEK293 APP cells; 18-20 hrs incubation; Aβ 40 in culture supernatants by AlphaLISA; read-out: BACE1 cell act. Aβ40 IC50
Method: Cellular Aβ-lowering assay:
The Abeta 40 AlphaLISA Assay can be used. The HEK293 APP cells were seeded in 96 well Microtiter plates in cell culture medium (Iscove's, plus 10% (v/v) fetal bovine serum, penicillin/streptomycin) to about 80% confluency and the compounds were added at a 3× concentration in ⅓ volume of culture medium (final DMSO concentration was kept at 1% v/v). After 18-20 hrs incubation at 37° C. and 5% CO2 in a humidified incubator, the culture supernatants were harvested for the determination of Aβ 40 concentrations using Perkin-Elmer Human Amyloid beta 1-40 (high specificity) Kit (Cat#AL275C).
In a Perkin-Elmer White Optiplate-384 (Cat#6007290), 2 ul culture supernatants were combined with 2 μl of a 10× AlphaLISA Anti-hAβAcceptor beads+Biotinylated Antibody Anti-Aβ1-40 Mix (50 μg/mL/5 nM). After 1 hour room temperature incubation, 16 μl of a 1.25× preparation of Streptavidin (SA) Donor beads (25 μg/mL) were added and incubated for 30 minutes in the Dark. Light Emission at 615 nm was then recorded using EnVision-Alpha Reader. Levels of Aβ 40 in the culture supernatants were calculated as percentage of maximum signal (cells treated with 1% DMSO without inhibitor). The IC50 values were calculated using the Excel XLfit software.

T1 sequence (P56817 46-501): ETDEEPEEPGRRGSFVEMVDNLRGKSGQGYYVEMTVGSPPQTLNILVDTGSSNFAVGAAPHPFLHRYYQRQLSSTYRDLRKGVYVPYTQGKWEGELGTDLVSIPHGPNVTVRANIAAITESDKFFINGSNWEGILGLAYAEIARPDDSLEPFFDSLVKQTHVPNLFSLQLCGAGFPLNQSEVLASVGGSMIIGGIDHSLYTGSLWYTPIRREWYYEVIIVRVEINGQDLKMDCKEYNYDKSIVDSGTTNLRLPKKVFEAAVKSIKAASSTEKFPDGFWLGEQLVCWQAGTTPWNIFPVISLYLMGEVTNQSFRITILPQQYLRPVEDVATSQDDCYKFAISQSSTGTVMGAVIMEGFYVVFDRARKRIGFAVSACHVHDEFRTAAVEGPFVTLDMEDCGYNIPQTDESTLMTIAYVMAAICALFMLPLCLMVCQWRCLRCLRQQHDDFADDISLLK

IC50 | Structure (SMILES)
180 nM | C[C@@]1(c2cc(-c3cn(-c4ccc(C#N)cn4)nn3)ccc2F)C[C@@H](C(F)(F)F)OC(N)=N1 [Example 77, 6-(4-(3-((4S,6S)-2-Amino-4-methyl-6-(trifluoromethyl)-5,6-dihydro-4H-1,3-oxazin-4-yl)-4-fluorophenyl)-1H-1,2,3-triazol-1-yl)nicotinonitrile]
2520 nM | C[C@@]1(c2cc(-c3cncnc3)cs2)C[C@@H](C(F)(F)F)OC(N)=N1 [Example 42, (4S,6S)-4-Methyl-4-(4-(pyrimidin-5-yl)thiophen-2-yl)-6-(trifluoromethyl)-5,6-dihydro-4H-1,3-oxazin-2-amine]
790 nM | N#Cc1cnc(C#Cc2ccc(F)c([C@]3(CF)C[C@@H](C(F)(F)F)OC(N)=N3)c2)c(Cl)c1 [Example 59, 6-((3-((4S,6S)-2-Amino-4-(fluoromethyl)-6-(trifluoromethyl)-5,6-dihydro-4H-1,3-oxazin-4-yl)-4-fluorophenyl)ethynyl)-5-chloronicotinonitrile]
6420 nM | C[C@@]1(c2cc(-c3ccccc3)ccc2F)C[C@@H](C(F)(F)F)OC(N)=N1 [Example 41, (4S,6S)-4-(4-Fluorobiphenyl-3-yl)-4-methyl-6-(trifluoromethyl)-5,6-dihydro-4H-1,3-oxazin-2-amine]
900 nM | C[C@@]1(c2cc(-c3cncc(C#N)c3)ccc2F)C[C@@H](C(F)(F)F)OC(N)=N1 [Example 12, 5-(3-((4S,6S)-2-Amino-4-methyl-6-(trifluoromethyl)-5,6-dihydro-4H-1,3-oxazin-4-yl)-4-fluorophenyl)nicotinonitrile]
250 nM | C[C@@]1(c2cc(C#Cc3ccnc(Cl)c3)ccc2F)C[C@@H](C(F)(F)F)OC(N)=N1 [Example 20, (4S,6S)-4-(5-((2-Chloropyridin-4-yl)ethynyl)-2-fluorophenyl)-4-methyl-6-(trifluoromethyl)-5,6-dihydro-4H-1,3-oxazin-2-amine]
110 nM | Cc1cc(F)c([C@]2(C)C[C@@H](C(F)(F)F)OC(N)=N2)cc1C#Cc1ncc(Cl)cn1 [Example 72, (4S,6S)-4-(5-((5-Chloropyrimidin-2-yl)ethynyl)-2-fluoro-4-methylphenyl)-4-methyl-6-(trifluoromethyl)-5,6-dihydro-4H-1,3-oxazin-2-amine]
270 nM | Cc1cc(C#Cc2ccc(F)c([C@]3(CF)C[C@@H](C(F)(F)F)OC(N)=N3)c2)sn1 [Example 64, (4S,6S)-4-(2-Fluoro-5-((3-methylisothiazol-5-yl)ethynyl)phenyl)-4-(fluoromethyl)-6-(trifluoromethyl)-5,6-dihydro-4H-1,3-oxazin-2-amine]
150 nM | C[C@]1(c2cc(NC(=O)c3ccc(C#N)cn3)ccc2F)N=C(N)O[C@@H](C(F)(F)F)[C@@H]1F [Example 1, N-(3-((4R,5R,6R)-2-Amino-5-fluoro-4-methyl-6-(trifluoromethyl)-5,6-dihydro-4H-1,3-oxazin-4-yl)-4-fluorophenyl)-5-cyanopicolinamide]
330 nM | C[C@@]1(c2cc(NC(=O)c3ccc(Cl)cn3)cs2)C[C@@H](C(F)(F)F)OC(N)=N1 [Example 34, N-(5-((4S,6S)-2-amino-4-methyl-6-(trifluoromethyl)-5,6-dihydro-4H-1,3-oxazin-4-yl)thiophen-3-yl)-5-chloropicolinamide]
620 nM | CC#Cc1cncc(-c2cc(Cl)c([C@]3(C)C[C@@H](C(F)(F)F)OC(N)=N3)s2)c1 [Example 30, (4S,6S)-4-(3-Chloro-5-(5-(prop-1-ynyl)pyridin-3-yl)thiophen-2-yl)-4-methyl-6-(trifluoromethyl)-5,6-dihydro-4H-1,3-oxazin-2-amine]
58 nM | C[C@]1(c2cc(NC(=O)c3cnc(C(F)F)cn3)ccc2F)N=C(N)O[C@H](C(F)(F)F)[C@@H]1F [Example 6, N-(3-((4R,5R,6S)-2-Amino-5-fluoro-4-methyl-6-(trifluoromethyl)-5,6-dihydro-4H-1,3-oxazin-4-yl)-4-fluorophenyl)-5-(difluoromethyl)pyrazine-2-carboxamide]
190 nM | C[C@@]1(c2cc(-c3cncnc3)c(F)cc2F)C[C@@H](C(F)(F)F)OC(N)=N1 [Example 17, (4S,6S)-4-(2,4-Difluoro-5-(pyrimidin-5-yl)phenyl)-4-methyl-6-(trifluoromethyl)-5,6-dihydro-4H-1,3-oxazin-2-amine]
700 nM | C[C@@]1(c2cc(-c3cncc(C#N)c3)cs2)C[C@@H](C(F)(F)F)OC(N)=N1 [Example 26, 5-(5-((4S,6S)-2-Amino-4-methyl-6-(trifluoromethyl)-5,6-dihydro-4H-1,3-oxazin-4-yl)thiophen-3-yl)nicotinonitrile Hydrochloride]
2660 nM | C[C@@]1(c2cc(C#Cc3cncnc3)ccc2F)C[C@@H](C(F)(F)F)OC(N)=N1 [Example 50, (4S,6S)-4-(2-fluoro-5-(pyrimidin-5-ylethynyl)phenyl)-4-methyl-6-(trifluoromethyl)-5,6-dihydro-4H-1,3-oxazin-2-amine]
310 nM | CC#Cc1cncc(-c2csc([C@]3(C)C[C@@H](C(F)(F)F)OC(N)=N3)c2)c1 [Example 29, (4S,6S)-4-Methyl-4-(4-(5-(prop-1-ynyl)pyridin-3-yl)thiophen-2-yl)-6-(trifluoromethyl)-5,6-dihydro-4H-1,3-oxazin-2-amine Hydrochloride]
180 nM | Cc1cc(F)c([C@]2(C)C[C@@H](C(F)(F)F)OC(N)=N2)cc1C#Cc1nn(C(F)F)cc1Cl [Example 71, (4S,6S)-4-(5-((4-Chloro-1-(difluoromethyl)-1H-pyrazol-3-yl)ethynyl)-2-fluoro-4-methylphenyl)-4-methyl-6-(trifluoromethyl)-5,6-dihydro-4H-1,3-oxazin-2-amine]
3560 nM | Cc1cc(F)c([C@]2(C)C[C@@H](C(F)(F)F)OC(N)=N2)cc1-c1cccc(C#N)c1F [Example 74, 5′-((4S,6S)-2-Amino-4-methyl-6-(trifluoromethyl)-5,6-dihydro-4H-1,3-oxazin-4-yl)-2,4′-difluoro-2′-methylbiphenyl-3-carbonitrile]
88 nM | C[C@@]1(c2cc(NC(=O)c3ccc(C#N)cn3)cs2)C[C@@H](C(F)(F)F)OC(N)=N1 [Example 35, N-(5-((4S,6S)-2-Amino-4-methyl-6-(trifluoromethyl)-5,6-dihydro-4H-1,3-oxazin-4-yl)thiophen-3-yl)-5-cyanopicolinamide]
10600 nM | Cc1cc(-c2cncc(-c3ccc(F)c([C@]4(CF)C[C@@H](C(F)(F)F)OC(N)=N4)c3)c2)n[nH]1 [Example 47, (4S,6S)-4-(2-fluoro-5-(5-(5-methyl-1H-pyrazol-3-yl)pyridin-3-yl)phenyl)-4-(fluoromethyl)-6-(trifluoromethyl)-5,6-dihydro-4H-1,3-oxazin-2-amine]
> 40000 nM | C[C@@]1(c2cc(-c3nnc(-c4ccc(Cl)cc4)o3)ccc2F)C[C@@H](C(F)(F)F)OC(N)=N1 [Example 40, (4S,6S)-4-(5-(5-(4-Chlorophenyl)-1,3,4-oxadiazol-2-yl)-2-fluorophenyl)-4-methyl-6-(trifluoromethyl)-5,6-dihydro-4H-1,3-oxazin-2-amine]
490 nM | C[C@]1(c2cc(NC(=O)c3ccc(Cl)cn3)ccc2F)N=C(N)O[C@@H](C(F)(F)F)[C@@H]1F [Example 3, N-(3-((4R,5R,6R)-2-Amino-5-fluoro-4-methyl-6-(trifluoromethyl)-5,6-dihydro-4H-1,3-oxazin-4-yl)-4-fluorophenyl)-5-chloropicolinamide]
